Assay results reported in PMC12607897, “Inhibition of HIV-1 replication by primer RNA packaging inhibitors” (mBio, 2025).
Like-named read-outs stand apart in the source and are kept apart here.

Key:
[1] = target: T1, mLysRS:IN interaction (human mLysRS, HIV-1 IN) (UniProt P12497+Q15046); test: HTRF assay of mLysRS:IN interaction; assay type: binding, human / HIV-1; settings: for effect on the mLysRS:IN interaction in the HTRF assay: dihydropyridine derivatives, Fig. S2
T1 construct: made in house
Description: Fig 1 Determination of the half-maximal inhibitory concentration (IC50) of the drugs in the mLysRS:IN binding assay. The binding of mLysRS to IN (red) or p38 (blue) was monitored in the HTRF assay in the presence of increasing drug concentrations (9–1,000 µM). The experimental values (symbols) were fitted (curves) to the equation Y = Ymin + {(Ymax − Ymin)/[1 + (X/IC50)^n]}, where n is the Hill coefficient. […] Proteins were isolated as described previously ([4]). Several batches of IN were used throughout this study. […] The molecules are dissolved in DMSO at a final concentration of 10 mM. After a 1 h incubation on ice, antibodies (Cisbio) directed to the His-tag and conjugated with Eu^3+ cryptate (Cisbio #61HISKLB) and the HA-tag conjugated with XL665 (Cisbio #610HAXLB) were added, and incubation was continued for 30 min. After the addition of 50 mM KF, fluorescence of Eu^3+ cryptate and of XL665 was recorded at 620 nm (I620) and 665 nm (I665), respectively, following excitation of Eu^3+ cryptate at 317 nm, in an Infinite M1000 PRO microplate reader (TECAN). The results were expressed as the ratio of I665/I620.

MT4 cells = test: cell toxicity by MTT assay; assay type: cell-based, human; settings: MTT assay, 1, 3.3 or 10 µM
Description: (§1) Fig 3 Effect of the inhibitors on HIV-1 replication and cell toxicity. MT4 cells were infected with NL4-3-GFP virus. Two days after infection, inhibitors were added to the culture medium at final concentrations of 1, 3.3, or 10 µM. The final concentration of DMSO was 0.1%. Five days after infection, GFP expression was quantified by flow cytometry, and cell viability was determined by the MTT assay. NInf corresponds to non-infected cells. Six independent experiments were performed, and standard deviations are shown. A Student t-test was used to determine statistical significance compared with the control experiment with DMSO (*: P < 0.001; **: P < 0.0001).
Replication of the NL4-3 virus was determined either by the ELISA technique or in HeLa-P4 cells by the CPRG method as described previously ([29]). These are HeLa CD4 LTR-lacZ cells in which the expression of lacZ is induced by the HIV transactivator Tat, allowing precise quantification of the infectivity of HIV-1. The viral titer was determined by quantifying β-galactosidase activity in HeLa-P4 lysates in a colorimetric assay based on the cleavage of chlorophenol red-β-D-galactopyranoside (CPRG) by β-galactosidase. The cytotoxicity is evaluated by the MTT assay.

[2] = test system: HIV-1 NL4-3 virus particles; test: digital PCR / RT-dPCR of minus-strand strong stop cDNA and viral RNA in particles; assay type: cell-based; settings: 10 µM drug, 72 and 96 h after infection
Source text: We used digital RT-PCR and digital PCR to determine the viral mRNA and minus-strand strong stop viral cDNA content of the particles (Fig. 7; Fig. S6). The amount of early viral cDNA produced in the HIV-1 particles is a measure of the efficiency of the initiation step of reverse transcription, which requires the packaging of tRNA3^Lys at the budding step, the primer for cDNA synthesis.
Fig 7 Effect of drugs on viral synthesis of minus-strand strong stop cDNA. Viruses were harvested from the culture medium after 72 (red) or 96 h (blue) of infection of MT4 cells with NL4-3 viruses. Minus-strand strong stop viral DNA and viral RNA (vRNA) were quantified by digital PCR and RT-dPCR, respectively. Viruses were harvested from cultures grown in the presence of 10 µM of azelastine (Aze), lacidipine (Lac), or cilnidipine (Cil), or H2O or DMSO as controls. Values and the associated standard deviations (n = 3) are expressed as the ratios of the values obtained for the H2O or DMSO controls. […].
MT4 cells (2 × 10^6 cells) were infected with the NL4-3 viruses. After 4–5 h of infection at 37°C, cells were twice washed with PBS, incubated 5 min at 37°C in 0.25% trypsin-EDTA solution (Gibco) to eliminate viruses remaining in the medium, incubated 5 min at 37°C in complete RPMI medium, twice washed with PBS, resuspended in RPMI medium at a cell density of 200 × 10^3 cells/mL and incubated with 10 µM of azelastine (25 mM stock solution in H20), or lacidipine and cilnidipine (25 mM stock solution in DMSO). A second aliquot of the inhibitors was added to the culture medium 48 h after infection. […] All RNA and DNA quantifications were performed by digital PCR and RT-qPCR on a QIAcuity instrument (QIAGEN) using 26K 24-well nanoplates and the QIAcuity Probe PCR and One-Step Viral RT-PCR kits. Primers and probes were 5′-[…], 5′-[…], and 5′-[…] for the quantification of minus-strand strong-stop cDNA, and 5′-[…], 5′-[…], and 5′-[…] CGT for viral RNA quantification.

mLysRS = mLysRS (Homo sapiens, UniProt Q15046); test: tRNA aminoacylation assay; assay type: biochemical; settings: drug added up to 1 mM
Description: Initial rates of tRNA aminoacylation were measured at 25°C in 0.1 mL of 20 mM Imidazole-HCl buffer (pH 7.5), 100 mM KCl, 0.5 mM DTT, 12 mM MgCl2, 2 mM ATP, 180 µM ^14C-labeled lysine (NEN; 16.66 Ci/mol), and saturating amounts of global yeast tRNA ([30]). The incubation mixture contained catalytic amounts (2 nM) of mLysRS appropriately diluted in 10 mM Tris-HCl (pH 7.5), 10 mM 2-mercaptoethanol, containing bovine serum albumin at 4 mg/mL. Inhibitors were added at final concentrations ranging from 3.9 to 1,000 µM. One unit of activity is the amount of enzyme producing 1 nmol of lysine-tRNA^Lys/min, at 25°C.
Fig. S5. Effect of inhibitors on mLysRS activity. The tRNA-aminoacylation activity of mLysRS
was determined in the presence of increasing concentrations of the drugs. Two independent
experiments were performed and standard deviations are shown.
Fig. 6. Raw data of quantification of minus-strand strong stop viral DNA and viral RNA by
digital PCR from viruses recovered after 72 h incubation in the presence of 10 µM of the drugs.

[3] = test system: HIV-1 NLENG1-IRES-GFP (NL4-3-GFP) virus in MT4 cells; test: ex vivo HIV-1 replication assay, GFP expression by flow cytometry in infected MT4 cells (multiple cycles); assay type: cell-based; settings: for GFP fluorescence, % of the value observed when DMSO was added alone: drug 10 µM, added 36–48 h after infection, read 72 h later
Description: To test this hypothesis, azelastine, lacidipine, and cilnidipine were used in an ex vivo assay to determine their effect on HIV-1 proliferation. MT4 cells were infected with NLENG1-IRES-GFP, a virus that allows for multiple cycles of infection, and the molecules were added to the medium 36–48 h after infection, before the completion of the first round of viral infection; 72 h after the drugs were added, when two rounds of HIV-1 infection were underway, the level of GFP fluorescence was determined by flow cytometry, as a marker of HIV-1 infection (Fig. 3, left panel). HIV-1 replication was inhibited in a dose-dependent manner. […]. […] At the same time, no drug toxicity was observed, as determined by the MTT assay (Fig. 3, right panel). […] The selectivity index (SI) ([24]) of the three drugs, defined as the ratio of 50% cytotoxic concentration (CC50; >20 µM) to 50% inhibitory concentration (IC50; ~5 µM), >4.
as §1
MT4 cell line ([26]) was maintained in RPMI 1640. HEK293T and HeLa-P4 cells ([27]) were maintained in Dulbecco’s modified Eagle medium (DMEM). All media were supplemented with Glutamax and with 10% heat-inactivated fetal calf serum (Hyclone) and 1% penicillin/streptomycin (100 units/mL) (Gibco). All media were purchased from Gibco (Life Technologies Co.). All cell lines used here were incubated at 37 °C, under 5% CO2 atmosphere. HIV-1 stocks were prepared by calcium phosphate-mediated transfection of HEK293T cells, as previously described ([22]), with shuttle vector plasmids encoding HIV-1 NL4-3 (GenBank: AF324493.1) or NLENG1-IRES-GFP ([28]). The latter vector comes from the HIV NL4-3 strain and contains a gfp-IRES-nef cassette at the nef locus. […].
For NL4-3-GFP vectors, viral infection is followed by GFP expression (i.e., the percentage and geometric mean fluorescence intensity [MFI] of GFP^+ cells). Infectivity was estimated by flow cytometry using a FACS Celesta flow cytometer (BD Biosciences). Toxicity is also assessed by flow cytometry (side and forward scatter).

[4] = HTRF, mLysRS 1.5 nM dimer, IN 25 nM dimer, read-out: half-maximal inhibitory concentration (IC50) in the mLysRS:IN assay

T1 sequence (Q15046 other isoform, or with tags, fused parts or gaps, other chains not shown): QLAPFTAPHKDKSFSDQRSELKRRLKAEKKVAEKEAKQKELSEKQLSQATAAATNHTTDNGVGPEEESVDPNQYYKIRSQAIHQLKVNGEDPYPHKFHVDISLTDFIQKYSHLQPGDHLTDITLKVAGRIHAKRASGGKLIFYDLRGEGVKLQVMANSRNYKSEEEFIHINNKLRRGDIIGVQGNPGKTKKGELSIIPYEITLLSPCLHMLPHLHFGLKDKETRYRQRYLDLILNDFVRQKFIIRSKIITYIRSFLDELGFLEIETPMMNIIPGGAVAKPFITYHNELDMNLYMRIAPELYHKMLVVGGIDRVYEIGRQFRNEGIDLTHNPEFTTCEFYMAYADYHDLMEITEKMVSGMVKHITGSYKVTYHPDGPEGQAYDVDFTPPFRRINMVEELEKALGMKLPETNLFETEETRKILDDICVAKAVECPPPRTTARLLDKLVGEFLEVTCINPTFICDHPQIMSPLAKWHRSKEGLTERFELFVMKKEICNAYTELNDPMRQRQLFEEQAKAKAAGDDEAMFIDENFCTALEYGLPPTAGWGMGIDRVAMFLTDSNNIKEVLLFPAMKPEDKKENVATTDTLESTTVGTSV
Chain of mLysRS (Q15046 31-625 isoform Q15046-2): as the sequence (Q15046 other isoform, or with tags, fused parts or gaps, other chains not shown) above

Structure (SMILES): CCOC(=O)C1=C(C)NC(C)=C(C(=O)OCC)C1 [Diludine]
- effect on the mLysRS:IN interaction in the HTRF assay [1]: did not significantly alter

Structure (SMILES): COC(=O)C1=C(C)NC(C)=C(C(=O)OC(C)(C)CN(C)CCC(c2ccccc2)c2ccccc2)C1c1cccc([N+](=O)[O-])c1 (centres unmarked) [Lercanidipine]
- cell toxicity (MT4 cells): higher cellular toxicity

Structure (SMILES): CC1=C(C(=O)OC(C)C)C(c2cccc([N+](=O)[O-])c2)C(C(=O)OC2CN(C(c3ccccc3)c3ccccc3)C2)=C(N)N1 (centres unmarked) [azelnidipine]
- cell toxicity (MT4 cells): higher cellular toxicity

Structure (SMILES): CCCC(=O)OCOC(=O)C1=C(C)NC(C)=C(C(=O)OC)C1c1cccc(Cl)c1Cl (centres unmarked) [celvidipine]
- effect on the mLysRS:IN interaction in the HTRF assay [1]: did not significantly alter

Structure (SMILES): COCCOC(=O)C1=C(C)NC(C)=C(C(=O)OC/C=C/c2ccccc2)C1c1cccc([N+](=O)[O-])c1 (centres unmarked) [cilnidipine]
- minus-strand strong stop cDNA in viruses, normalized to viral RNA [2]: significantly reduced
- inhibition of Lysyl-tRNA^Lys synthesis (mLysRS): did not inhibit
- GFP fluorescence, % of the value observed when DMSO was added alone [3]: 18.9%
- IC50 [1, 4]: 310 ± 30 µM

Structure (SMILES): CCOC(=O)C1=C(C)NC(C)=C(C(=O)OC)C1c1cccc(Cl)c1Cl (centres unmarked) [felodipine]
- effect on the mLysRS:IN interaction in the HTRF assay [1]: did not significantly alter

Structure (SMILES): COC(=O)C1=C(C)NC(C)=C(C(=O)OC(C)C)C1c1cccc2nonc12 (centres unmarked) [isradipine]
- IC50 [1]: > 500 µM

Structure (SMILES): CCOC(=O)C1=C(C)NC(C)=C(C(=O)OCC)C1c1ccccc1/C=C/C(=O)OC(C)(C)C [lacidipine]
- minus-strand strong stop cDNA in viruses, normalized to viral RNA [2]: significantly reduced
- inhibition of Lysyl-tRNA^Lys synthesis (mLysRS): 30%
- GFP fluorescence, % of the value observed when DMSO was added alone [3]: 27.2%
- IC50 [1, 4]: 64 ± 8 µM

Structure (SMILES): CCOC(=O)C1=C(COCCN)NC(C)=C(C(=O)OC)[C@@H]1c1ccccc1Cl [levamlodipine]
- effect on the mLysRS:IN interaction in the HTRF assay [1]: did not significantly alter

Structure (SMILES): COC(=O)C1=C(C)NC(C)=C(C(=O)OCCN(C)Cc2ccccc2)C1c1cccc([N+](=O)[O-])c1 (centres unmarked) [nicardipine]
- IC50 [1]: > 500 µM

Structure (SMILES): COCCOC(=O)C1=C(C)NC(C)=C(C(=O)OC(C)C)C1c1cccc([N+](=O)[O-])c1 (centres unmarked) [nimodipine]
- effect on the mLysRS:IN interaction in the HTRF assay [1]: did not significantly alter

Structure (SMILES): COC(=O)C1=C(C)NC(C)=C(C(=O)OCC(C)C)C1c1ccccc1[N+](=O)[O-] (centres unmarked) [nisoldipine]
- inhibition of HIV-1 replication in the ex vivo assay ([3]; NL4-3-GFP, Fig. S3): did not inhibit

Structure (SMILES): CCOC(=O)C1=C(C)NC(C)=C(C(=O)OC)C1c1cccc([N+](=O)[O-])c1 (centres unmarked) [nitrendipine]
- IC50 [1]: > 500 µM

Structure (SMILES): COC(=O)C1=C(C#N)NC(C)=C(C(=O)OC(C)C)C1c1cccc([N+](=O)[O-])c1 (centres unmarked) [nivaldipine]
- IC50 [1, 4]: > 500 µM
